Data reported in ChEMBL document CHEMBL1201862, “PubChem BioAssay data set” (2004).
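1) Cells in 96-well plates. 2) Compound, 48 h, 5 concentrations. 3) Linear interpolation between surrounding doses. 4) Unreached endpoint = highest concentration. Here, GI50 denotes the concentration required for 50% inhibition of growth.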 Active and inactive are the calls of the source. Rule as the data show it: active = GI50 up to about 1.1 µM and inactive = higher.

Legend:
Assay in all cases: DTP human tumour cell line panel, 48 h
A549 = tested on: A549
EKVX = tested on: EKVX
HOP-92 = tested on: HOP-92
MOLT-4 = tested on: MOLT-4
Malme-3M = tested on: Malme-3M
NCI-H226 = tested on: NCI-H226
NCI-H23 = tested on: NCI-H23
NCI-H522 = tested on: NCI-H522
OVCAR-3 = tested on: OVCAR-3
OVCAR-4 = tested on: OVCAR-4
OVCAR-5 = tested on: OVCAR-5
OVCAR-8 = tested on: OVCAR-8
SF-268 = tested on: SF-268
SF-539 = tested on: SF-539
SNB-19 = tested on: SNB-19
UACC-257 = tested on: UACC-257
UO-31 = tested on: UO-31
PC-3 = tested on: PC-3
T47D = tested on: T47D

SMILES	GI50 (A549)	GI50 (EKVX)	GI50 (HOP-92)	GI50 (MOLT-4)	GI50 (Malme-3M)	GI50 (NCI-H226)	GI50 (NCI-H23)	GI50 (NCI-H522)	GI50 (OVCAR-3)	GI50 (OVCAR-4)	GI50 (OVCAR-5)	GI50 (OVCAR-8)	GI50 (SF-268)	GI50 (SF-539)	GI50 (SNB-19)	GI50 (UACC-257)	GI50 (UO-31)	GI50 (PC-3)	GI50 (T47D)
FC(F)(F)c1nc2ccc3[nH]c4c(-c5ccccc5)nccc4c3c2[nH]1	> 100 µM (inactive)	> 100 µM (inactive)	> 100 µM (inactive)	> 100 µM (inactive)	> 100 µM (inactive)	> 100 µM (inactive)	> 100 µM (inactive)	> 83.8 µM (inactive)	> 100 µM (inactive)	> 100 µM (inactive)	> 100 µM (inactive)	> 100 µM (inactive)	> 100 µM (inactive)	> 100 µM (inactive)	> 100 µM (inactive)	> 100 µM (inactive)	> 100 µM (inactive)	–	–
Cc1ccc(S(=O)(=O)N/N=C\c2c3ccccc3[n+](C)c3ccccc23)cc1	20.8 µM (inactive)	54.6 µM (inactive)	17.1 µM (inactive)	17.6 µM (inactive)	32.4 µM (inactive)	25 µM (inactive)	21.1 µM (inactive)	25.8 µM (inactive)	26.1 µM (inactive)	27.6 µM (inactive)	> 100 µM (inactive)	38.5 µM (inactive)	29.2 µM (inactive)	22.4 µM (inactive)	24.9 µM (inactive)	30.8 µM (inactive)	26.9 µM (inactive)	–	–
O=C(O/N=C1/CCCC/C1=C\c1ccccc1)c1ccc(Cl)cc1	> 100 µM (inactive)	42.1 µM (inactive)	40.9 µM (inactive)	–	> 100 µM (inactive)	> 100 µM (inactive)	> 100 µM (inactive)	23.3 µM (inactive)	> 100 µM (inactive)	53 µM (inactive)	44.8 µM (inactive)	> 100 µM (inactive)	> 100 µM (inactive)	> 100 µM (inactive)	> 100 µM (inactive)	> 100 µM (inactive)	> 100 µM (inactive)	–	–
C=C1C(=O)C23C(O)C1CC[C@H]2C12CCCC(C)(COC(C)=O)[C@H]1[C@H](O)[C@]3(O)OC2 (stereo partly drawn)	3.94 µM (inactive)	4.01 µM (inactive)	1.39 µM (inactive)	0.138 µM (active)	1.42 µM (inactive)	2.44 µM (inactive)	1.87 µM (inactive)	0.285 µM (active)	1.61 µM (inactive)	2.15 µM (inactive)	2.36 µM (inactive)	1.7 µM (inactive)	3.19 µM (inactive)	1.68 µM (inactive)	3.44 µM (inactive)	1.14 µM (inactive)	1.77 µM (inactive)	1.88 µM (inactive)	1.3 µM (inactive)
CC1(Cl)C(=O)NC(=O)N([C@H]2C[C@H](O)[C@@H](CO)O2)C1N=[N+]=[N-] (stereo partly drawn)	> 100 µM (inactive)	> 100 µM (inactive)	> 100 µM (inactive)	> 100 µM (inactive)	> 100 µM (inactive)	> 100 µM (inactive)	> 100 µM (inactive)	> 100 µM (inactive)	> 100 µM (inactive)	> 96.2 µM (inactive)	> 100 µM (inactive)	> 100 µM (inactive)	> 100 µM (inactive)	> 100 µM (inactive)	> 100 µM (inactive)	> 100 µM (inactive)	> 100 µM (inactive)	–	–
CCOC(=O)Cc1[nH]c(C(=O)c2ccccc2)cc1C(=O)c1ccccc1	25.4 µM (inactive)	> 100 µM (inactive)	–	14.8 µM (inactive)	33.6 µM (inactive)	23.3 µM (inactive)	17.4 µM (inactive)	52.5 µM (inactive)	46.3 µM (inactive)	18.3 µM (inactive)	> 10 µM (inactive)	> 10 µM (inactive)	56.4 µM (inactive)	–	> 100 µM (inactive)	> 10 µM (inactive)	> 10 µM (inactive)	> 10 µM (inactive)	17.7 µM (inactive)
Cc1nc(Nc2ccc(F)cc2)c2sc(=S)n(-c3ccc(F)cc3)c2n1	16 µM (inactive)	13.1 µM (inactive)	–	–	14.6 µM (inactive)	16.1 µM (inactive)	4.24 µM (inactive)	16.1 µM (inactive)	17.1 µM (inactive)	15.5 µM (inactive)	17.9 µM (inactive)	15.6 µM (inactive)	11 µM (inactive)	–	14.7 µM (inactive)	13.4 µM (inactive)	16.5 µM (inactive)	20.1 µM (inactive)	5.31 µM (inactive)
CC(=O)C(C(C)=O)=C1CCCC(O)O1 (stereo not drawn)	> 100 µM (inactive)	> 100 µM (inactive)	–	> 100 µM (inactive)	> 100 µM (inactive)	> 100 µM (inactive)	> 100 µM (inactive)	–	–	> 100 µM (inactive)	> 100 µM (inactive)	> 100 µM (inactive)	> 100 µM (inactive)	> 100 µM (inactive)	> 100 µM (inactive)	> 100 µM (inactive)	> 100 µM (inactive)	–	> 100 µM (inactive)
CC(=O)c1cc2c3c(c1)c1cc4c(cc1c(=O)n3CC2)OCO4	40.1 µM (inactive)	46.2 µM (inactive)	54.8 µM (inactive)	2.92 µM (inactive)	23.3 µM (inactive)	> 100 µM (inactive)	75.5 µM (inactive)	7.21 µM (inactive)	33.8 µM (inactive)	25.8 µM (inactive)	78.7 µM (inactive)	8.3 µM (inactive)	–	32.6 µM (inactive)	28.5 µM (inactive)	26.7 µM (inactive)	8.11 µM (inactive)	–	–
CC1(C)OCN(c2ccc(N3CCOCC3)cc2)Cn2c1nc1ccccc12	> 100 µM (inactive)	> 100 µM (inactive)	> 100 µM (inactive)	> 100 µM (inactive)	> 100 µM (inactive)	55.3 µM (inactive)	> 100 µM (inactive)	> 100 µM (inactive)	> 100 µM (inactive)	29.6 µM (inactive)	–	> 100 µM (inactive)	> 100 µM (inactive)	88.1 µM (inactive)	> 100 µM (inactive)	46.1 µM (inactive)	> 100 µM (inactive)	–	–
COc1ccc2oc(=N)c(C(=O)Nc3ccccn3)cc2c1	> 100 µM (inactive)	62.4 µM (inactive)	> 100 µM (inactive)	> 100 µM (inactive)	61.2 µM (inactive)	60.3 µM (inactive)	> 100 µM (inactive)	–	> 100 µM (inactive)	> 100 µM (inactive)	> 100 µM (inactive)	> 100 µM (inactive)	> 100 µM (inactive)	–	87.1 µM (inactive)	> 100 µM (inactive)	–	> 100 µM (inactive)	37 µM (inactive)
O=[N+]([O-])c1nccn1COCCI	> 100 µM (inactive)	> 100 µM (inactive)	> 100 µM (inactive)	> 100 µM (inactive)	> 100 µM (inactive)	> 100 µM (inactive)	> 100 µM (inactive)	> 100 µM (inactive)	> 100 µM (inactive)	> 100 µM (inactive)	> 100 µM (inactive)	> 100 µM (inactive)	> 100 µM (inactive)	> 100 µM (inactive)	> 100 µM (inactive)	> 100 µM (inactive)	> 100 µM (inactive)	–	–
COC(=O)/C=C/c1ccccc1N=[S@](C)(=O)c1ccc(C)cc1	27.9 µM (inactive)	37.4 µM (inactive)	35 µM (inactive)	19.8 µM (inactive)	14 µM (inactive)	36.1 µM (inactive)	28.1 µM (inactive)	2.86 µM (inactive)	14.6 µM (inactive)	26.1 µM (inactive)	36.1 µM (inactive)	28.5 µM (inactive)	29.4 µM (inactive)	21.8 µM (inactive)	19.1 µM (inactive)	8.85 µM (inactive)	50.4 µM (inactive)	13.4 µM (inactive)	31.8 µM (inactive)
CC(=O)C1C(=O)C(=O)N(CCN2C(=O)C(=O)C(C(C)=O)C2=O)C1=O (stereo not drawn)	–	> 100 µM (inactive)	> 100 µM (inactive)	–	> 100 µM (inactive)	> 100 µM (inactive)	> 100 µM (inactive)	> 100 µM (inactive)	> 100 µM (inactive)	> 100 µM (inactive)	> 100 µM (inactive)	> 100 µM (inactive)	> 100 µM (inactive)	> 100 µM (inactive)	> 100 µM (inactive)	> 100 µM (inactive)	> 100 µM (inactive)	–	–
COc1c(C2=NC(C(C)C)CO2)ccc2ccccc12 (stereo not drawn)	32.7 µM (inactive)	37.1 µM (inactive)	30.1 µM (inactive)	14.2 µM (inactive)	35.8 µM (inactive)	30.6 µM (inactive)	34.6 µM (inactive)	28.2 µM (inactive)	37.2 µM (inactive)	31.7 µM (inactive)	82.8 µM (inactive)	41.5 µM (inactive)	29.6 µM (inactive)	34.8 µM (inactive)	50.5 µM (inactive)	34.2 µM (inactive)	31.4 µM (inactive)	–	–
NCCCCN(CCCN)C(=O)c1ccccc1	> 100 µM (inactive)	> 100 µM (inactive)	> 100 µM (inactive)	> 100 µM (inactive)	–	> 100 µM (inactive)	> 100 µM (inactive)	> 100 µM (inactive)	> 100 µM (inactive)	> 100 µM (inactive)	> 100 µM (inactive)	> 100 µM (inactive)	> 100 µM (inactive)	> 100 µM (inactive)	> 100 µM (inactive)	> 100 µM (inactive)	> 100 µM (inactive)	> 100 µM (inactive)	> 100 µM (inactive)
